Drawing on patent US8829034B2, “Compounds which modulate the CB2 receptor” (Boehringer Ingerlheim International GmbH, priority 2006, dated 2014), this text covers agonistic activity and EC50 for 8 compounds.

For the assay, the target named is T1, human CB2R (Homo sapiens, UniProt P34972).
T1 construct: host or cells: CHO cells
Put plainly: CB2R mediated modulation of cAMP synthesis. Conditions: for agonistic activity: found through the use of the above described assays. Format: cell-based. In a few lines:
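CHO cells expressing human CB2R were treated with compound for 30 min at 37 °C in buffer containing 1 mM IBMX, 0.25% BSA and 10 uM forskolin. cAMP was measured after lysis. EC50 was taken as 50% inhibition of forskolin-stimulated cAMP, with 100% defined by 1 uM CP55940, using a four-parameter logistic fit.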

Like-named read-outs stand apart in the source and are kept apart here.

T1 sequence (P34972 whole entry): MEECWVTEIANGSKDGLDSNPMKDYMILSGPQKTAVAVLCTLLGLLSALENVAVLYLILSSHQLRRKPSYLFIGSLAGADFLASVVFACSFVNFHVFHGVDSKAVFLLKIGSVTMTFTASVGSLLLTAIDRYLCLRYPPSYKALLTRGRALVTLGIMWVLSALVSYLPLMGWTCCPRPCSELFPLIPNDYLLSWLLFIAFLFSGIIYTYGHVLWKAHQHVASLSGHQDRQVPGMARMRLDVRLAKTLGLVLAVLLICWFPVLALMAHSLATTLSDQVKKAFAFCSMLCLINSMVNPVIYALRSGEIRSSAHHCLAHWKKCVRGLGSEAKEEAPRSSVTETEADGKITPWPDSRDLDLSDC

As to `CCCS(=O)(=O)C(C)(C)C(=O)Nc1cccc(C(C)(C)C)c1` [N-(3-tert-Butyl-phenyl)-2-methyl-2-(propane-1-sulfonyl)-propionamide], the agonistic activity result was “agonistic activity”.

On to `CC(C)(C)c1cc(NC(=O)C(C)(C)S(=O)(=O)C2CCCCC2)no1` [N-(5-tert-Butyl-isoxazol-3-yl)-2-cyclohexanesulfonyl-2-methyl-propionamide], for which the EC50 amounted to 0.2 nM and the agonistic activity result is recorded as “agonistic activity”. As for `CCC(C)S(=O)(=O)C(C)(C)C(=O)Nc1nc(C(C)(C)C)cs1` (stereo not drawn) [2-(Butane-2-sulfonyl)-N-(4-tert-butyl-thiazol-2-yl)-2-methyl-propionamide], the agonistic activity entry was “agonistic activity”. Further, the EC50 (CHO cells expressing human CB2R, inhibition of forskolin-stimulated cAMP synthesis, compounds having agonist activity, read-out: CB2 EC50) worked out at 14.4 nM. Take `CC(C)(C(=O)Nc1nc(-c2ccccc2)cs1)S(=O)(=O)CC1CCOCC1` [2-Methyl-N-(4-phenyl-thiazol-2-yl)-2-(tetrahydro-pyran-4-ylmethanesulfonyl)-propionamide]: the midpoint of the response, the EC50, lay at 7.1 nM and the agonistic activity result is recorded as “agonistic activity”. With `Cn1nc(-c2ccccc2)cc1NC(=O)C(C)(C)S(=O)(=O)C1CCOCC1` [2-Methyl-N-(2-methyl-5-phenyl-2H-pyrazol-3-yl)-2-(tetrahydro-pyran-4-sulfonyl)-propionamide], the agonistic activity entry is reported as “agonistic activity”. On to `CCCS(=O)(=O)C(C)(C)C(=O)Nc1cc(C(C)(C)C)nn1C` [N-(5-tert-Butyl-2-methyl-2H-pyrazol-3-yl)-2-methyl-2-(propane-1-sulfonyl)-propionamide], for which the agonistic activity entry is “agonistic activity”.

For the compound `CC(C)S(=O)(=O)C(C)(C)C(=O)Nc1cccc(C(C)(C)C)c1` [N-(3-tert-Butyl-phenyl)-2-methyl-2-(propane-2-sulfonyl)-propionamide], the agonistic activity entry was “agonistic activity”. As for `CC(C)(C)c1cc(NC(=O)C(C)(C)S(=O)(=O)C2CCOCC2)on1` [N-(3-tert-Butyl-isoxazol-5-yl)-2-methyl-2-(tetrahydro-pyran-4-sulfonyl)-propionamide], the EC50 turned out to be 0.1 nM and the agonistic activity entry is “agonistic activity”.

One may read the EC50 as the concentration at which the effect is half-maximal.
